The values below come from patent US20070134744A1, “Epothilone resistant cell lines” (priority 2000, published 2007).

Where a name gives a salt, the structure may show the parent alone. Read-outs that look alike come from different tables or passages of the source. Where only a bound is given, the exact number is not on record here.

The IC50 is the concentration that gives 50% inhibition.

One assay has as its system KB-8511 cells. In kind it is cell-based, human. The conditions noted are these: for RF (resistance factor: IC50 resistant cell line / IC50 parental KB-31): KB-8511 (Colch selected), 72 hrs, average of three experiments; for resistance profile in words: KB-8511 vs parental KB-31. The protocol: (§1) Data in Table 4 are gathered according to the following methods: Cells (1×10^3) are seeded in 96-well plates and allowed to adhere for 24 hrs. Compounds are then added as two-fold serial dilutions and incubation continued for an additional 72 hrs. Cell numbers at the beginning and at the end of the experiment are estimated by methylene blue staining of cellular protein mass according to conventional methods. The net mass increase of vehicle-treated cells is set as 100% growth. The IC50 is determined as the drug concentration that leads to half-maximal growth inhibition compared to the control. The resistance factor (RF) for a particular drug is calculated by dividing the IC50 determined on the resistant cell line by that determined on the parental KB-31 cells. Data are presented as average±standard deviation (SD) of three separate experiments, except na=not applicable (n<3). Colchicine-selected KB-8511 cells overexpressing P-glycoprotein served as a reference for the classical multi-drug-resistant phenotype.

In a further assay the test system is 297/C5/0 cells. It counts as cell-based, human. The note with it: for RF (resistance factor: IC50 resistant cell line / IC50 parental KB-31): 297/C5/0 (EpoA selected), 72 hrs, average of three experiments; for resistance profile in words: 297/C5/0 vs parental KB-31. As for the experimental part:
(§2) Anti-proliferative assays are performed basically as described (Meyer et al., Int. J. Cancer 43:851 (1989)). Briefly, cells are seeded at 1.5×10^3 cells/well into 96-well microtiter plates and allowed to adhere by incubation overnight. Compounds are added in serial dilutions on day 1. The plates are then incubated for an additional 3 days, after which the cells are fixed with 3.3% v/v glutaraldehyde, washed with water and stained with 0.05% w/v methylene blue according to conventional methods. After washing, the dye is eluted with 3% HCl and the optical density measured at 665 nm with a SpectraMax Plus (Molecular Devices, Sunnyvale, Calif.) according to manufacturers instructions. IC50 values are determined by mathematical curve-fitting using the SoftPro2.6.1 program (Molecular Devices, Sunnyvale, Calif.) using the formula (OD treated−OD start)/(OD control−OD start)×100. […] IC50 determinations with the cell line 298/D4/40 are performed in the presence of 40 nM epothilone A.
as §1

The subject of another assay is 315/sc5.9 cells. In kind it is cell-based, human. The note with it: for RF (resistance factor: IC50 resistant cell line / IC50 parental KB-31): 315/sc5.9 (EpoB selected), 72 hrs, average of three experiments; for resistance profile in words: 315/sc5.9 vs parental KB-31. The protocol: as §2, §1
The subject of another assay is 298/D4/40 cells. It counts as cell-based, human. The conditions noted are these: for RF (resistance factor: IC50 resistant cell line / IC50 parental KB-31): 298/D4/40 (EpoA selected), 72 hrs, in the presence of 40 nM epothilone A; for resistance profile in words: 298/D4/40 vs parental KB-31. The protocol: as §2, §1
The next assay concerns MDA-MB-435 cells. The assay is described as follows: MTS growth inhibition assay. It counts as cell-based. The conditions noted are these: Homo sapiens, P-gp substrates, Table 2. As for the experimental part: (§3) Growth inhibition may be analyzed using conventional methods, for example a MTS assay (PROMEGA, Wis.) may be used. In this assay approximately 4000 cells per well are seeded in 96 well plates in MEM supplemented with 10% fetal calf serum and incubated at 37° C. in 5.0% CO2. After 24 hours, dilutions of drug (concentration range used is between 1 nM and 1000 nM) are added and cells are allowed to incubate with drug for an additional 72 hours. The MTS reagent mixed with PMS (MTS:PMS 20:1 according to manufacturer's instructions) is then added and absorbance quantitated using a Thermomax microplate reader system according to conventional methods (Molecular Devices, Sunnyvale, Calif.). […] Six assays per drug per plate are performed.
Thus, at least two potential mechanisms of epothilone A resistance may exist—a lower resistance mechanism that is cross-resistant to TAXOL® and a higher, epothilone A specific resistance mechanism.
(In general: Tetrazolium dyes change colour on reduction, which living cells bring about.)

Another assay has as its system MDA/T0.3 cells. The assay is described as follows: MTS growth inhibition assay. In kind it is cell-based. As for the experimental part:
Growth inhibition may be analyzed using conventional methods, for example a MTS assay (PROMEGA, Wis.) may be used. In this assay approximately 4000 cells per well are seeded in 96 well plates in MEM supplemented with 10% fetal calf serum and incubated at 37° C. in 5.0% CO2. […] The MTS reagent mixed with PMS (MTS:PMS 20:1 according to manufacturer's instructions) is then added and absorbance quantitated using a Thermomax microplate reader system according to conventional methods (Molecular Devices, Sunnyvale, Calif.). […] Six assays per drug per plate are performed.
(§4) As such, epothilone resistant cells would have some degree of cross-resistance to other P-gp substrates that could be reversed by P-gp inhibitors. To investigate this possibility, the cytotoxicity of the P-gp substrates, vincristine, doxorubicine and vinblastine is determined against epothilone A resistant cells using the MTS assay. […] When EA20 and resistant MDA/T0.3 cells are incubated with TAXOL® or epothilone A in the presence of [3′-Desoxy-3′-oxo-MeBmt]^1-[Val]^2-Ciclosporin (PSC-833; a P-gp inhibitor which is disclosed in U.S. Pat. No. 5,525,590), the resistance of MDA/T0.3 cells to TAXOL® is reversed but no effect on the resistance of EA20 to epothilone A is observed.
MDA/T0.3 is a clonal subline of MDA-MB-435 cells selected by increasing exposure of MDA-MB-435 cells to TAXOL®. MDA/T0.3 cells express high levels of P-glycoprotein and are resistant to a variety of chemically and functionally unrelated compounds. MDA/T0.3 cells could be sensitized to a variety of cytotoxic agents by treatment with the P-glycoprotein reversing agent PSC-833.

The test system of another assay is EA40 cells. The assay is described as follows: MTS growth inhibition assay. In kind it is cell-based. The conditions noted are these: for IC50: EA40 cells, P-gp substrates, Table 2; for resistance profile in words: EA40 vs MDA-MB-435 / EA150. The protocol:
as §3, with “performed. […]” for “performed.”
as §4

Setting [1] is: MDA/T0.3 cells, P-gp substrates, Table 2, read-out: IC50.

As to `O=c1[nH]cc(F)c(=O)[nH]1` [5-FU, 5-Fluorouracil], the “RF (resistance factor: IC50 resistant cell line / IC50 parental KB-31)” value in the assay on KB-8511 cells was found to be 1.1; with 297/C5/0 cells it was 1.2; with 315/sc5.9 cells it was 0.4; in the assay on 298/D4/40 cells it was 0.9. The “resistance profile in words” value with 297/C5/0 cells was “Neither cell line is cross-resistant”; with 315/sc5.9 cells, “slightly hypersensitive”; in the assay with 298/D4/40 cells, “Neither cell line is cross-resistant”.
With `COc1cccc2c1C(=O)c1c(O)c3c(c(O)c1C2=O)C[C@@](O)(C(C)=O)C[C@@H]3O[C@H]1C[C@H](N)[C@H](O)[C@H](C)O1` [Daunorubicin], the IC50 in the assay on MDA-MB-435 cells is 382 ± 101 nM; in the assay with MDA/T0.3 cells, over 5000 nM; in the assay on EA40 cells, 224 ± 72 nM.
On to `CN[C@H]1CCc2cc(OC)c(OC)c(OC)c2-c2ccc(OC)c(=O)cc21` [Demecolcine, demecolcine], for which the “resistance profile in words” value with KB-8511 cells is reported as “resistant”; with 297/C5/0 cells it was “hypersensitive”; in the assay with 315/sc5.9 cells it was “slightly hypersensitive”; in the assay with 298/D4/40 cells, “hypersensitive”.
Turning to `C=C/C=C\[C@H](C)[C@H](OC(N)=O)[C@@H](C)[C@H](O)[C@@H](C)C/C(C)=C\[C@H](C)[C@@H](O)[C@@H](C)/C=C\[C@@H](O)C[C@@H]1OC(=O)[C@H](C)[C@@H](O)[C@H]1C` [Discodermolide], the “RF (resistance factor: IC50 resistant cell line / IC50 parental KB-31)” value is 2.8 with KB-8511 cells, 1.3 in the assay on 297/C5/0 cells, 1.2 in the assay on 315/sc5.9 cells and 0.5 with 298/D4/40 cells. The “resistance profile in words” value in the assay with 297/C5/0 cells and in the assay on 298/D4/40 cells was “not cross-resistant” throughout.
Take `COc1cccc2c1C(=O)c1c(O)c3c(c(O)c1C2=O)C[C@@](O)(C(=O)CO)C[C@@H]3O[C@H]1C[C@H](N)[C@H](O)[C@H](C)O1` [Doxorubicin, doxorubicin]: the IC50 with MDA-MB-435 cells is over 500 nM; in the assay with MDA/T0.3 cells (setting [1]) it was over 5000 nM; in the assay with EA40 cells it was 365 ± 200 nM. Also, the “RF (resistance factor: IC50 resistant cell line / IC50 parental KB-31)” value is reported as 48.8 in the assay on KB-8511 cells, 1.6 in the assay with 297/C5/0 cells, 1.8 with 315/sc5.9 cells and 1.2 with 298/D4/40 cells. In addition, the “resistance profile in words” value with KB-8511 cells is reported as “resistant”; with 297/C5/0 cells it was “Neither cell line is cross-resistant”; in the assay on 315/sc5.9 cells it was “marginal cross-resistance”; in the assay on 298/D4/40 cells, “Neither cell line is cross-resistant”; in the assay on EA40 cells it was “equally sensitive”.
`[NH2][Pt]1([NH2])[O]C(=O)C2(CCC2)C(=O)[O]1` [Paraplatine, Paraplatin]: the “RF (resistance factor: IC50 resistant cell line / IC50 parental KB-31)” value with KB-8511 cells is recorded as 0.8; in the assay on 297/C5/0 cells it was 1.2; in the assay on 315/sc5.9 cells it was 0.7; in the assay on 298/D4/40 cells, 3.8. In addition, the figures for the “resistance profile in words” value in the assay with 297/C5/0 cells and with 298/D4/40 cells were “Neither cell line is cross-resistant” and “very minor increase in the resistance”, respectively.
Regarding `CC[C@]1(O)C[C@@H]2CN(CCc3c([nH]c4ccccc34)[C@@](C(=O)OC)(c3cc4c(cc3OC)N(C)[C@H]3[C@@](O)(C(=O)OC)[C@H](OC(C)=O)[C@]5(CC)C=CCN6CC[C@]43[C@@H]65)C2)C1` [Vinblastine, Vinblastine sulfate], the IC50 in the assay on MDA-MB-435 cells is under 1 nM; in the assay with MDA/T0.3 cells (setting [1]), 14 ± 2.7 nM; in the assay on EA40 cells, under 1 nM. The “RF (resistance factor: IC50 resistant cell line / IC50 parental KB-31)” value worked out at 162.4 in the assay on KB-8511 cells, 0.7 in the assay with 297/C5/0 cells, 0.6 in the assay with 315/sc5.9 cells and 0.2 in the assay on 298/D4/40 cells. Further, the “resistance profile in words” value is given as “resistant” with KB-8511 cells, “hypersensitive” with 297/C5/0 cells, “hypersensitive” in the assay on 298/D4/40 cells and “equally sensitive” in the assay with EA40 cells.
`CC[C@]1(O)C[C@H]2CN(CCc3c([nH]c4ccccc34)[C@@](C(=O)OC)(c3cc4c(cc3OC)N(C=O)[C@H]3[C@@](O)(C(=O)OC)[C@H](OC(C)=O)[C@]5(CC)C=CCN6CC[C@]43[C@@H]65)C2)C1` [Vincristine, vincristine]: the IC50 in the assay with MDA-MB-435 cells came to 3 ± 2 nM; in the assay on EA40 cells it was 4 ± 1.7 nM. The “resistance profile in words” value was “slightly hypersensitive” in the assay with 315/sc5.9 cells and “equally sensitive” in the assay with EA40 cells.
